In US8435978B2, “Substituted sulfonamide compounds” (Gruenenthal GmbH, priority 2006, dated 2013):

Experiments:
human B1R receptor = target: T1, human B1R receptor (Homo sapiens, UniProt P46663); assay: Functional study on the bradykinin receptor 1 (B1R), FLIPR Ca2+ assay, hB1R cells; type: cell-based; conditions: agonist Lys-Des-Arg9-bradykinin 0.5 nM, % inhibition compared with the maximum achievable inhibition; for inhibition at 10 µM: CHO-K1, test substance 10 μM, read-out: B1R Antagonism, human [10 μM] % Inhibition; for B1R Antagonism, human [10 μM] % Inhibition: test substance 10 μM, hB1R CHO K1 cells
T1 construct: host or cells: CHO K1 cells (Chinese hamster ovary), stably transfected
T1 sequence (P46663 1-353): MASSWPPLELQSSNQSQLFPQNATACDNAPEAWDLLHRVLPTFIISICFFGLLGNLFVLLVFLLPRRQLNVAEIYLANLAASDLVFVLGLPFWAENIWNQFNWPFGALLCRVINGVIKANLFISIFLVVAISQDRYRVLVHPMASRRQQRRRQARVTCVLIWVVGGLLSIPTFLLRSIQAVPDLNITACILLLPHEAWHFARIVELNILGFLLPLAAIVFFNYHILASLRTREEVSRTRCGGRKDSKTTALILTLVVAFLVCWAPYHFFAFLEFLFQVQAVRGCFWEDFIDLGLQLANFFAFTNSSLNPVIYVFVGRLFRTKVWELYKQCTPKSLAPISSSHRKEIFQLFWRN
Outline: (§1)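 CHO K1 cells stably expressing human or rat B1R were loaded with Fluo-4 and read on a FLIPR (ex 488/em 540 nm, peak fluorescence). Test compounds at 10 μM were added first, then after 10 min agonist: Lys-Des-Arg9-bradykinin 0.5 nM for hB1R, Des-Arg9-bradykinin 100 nM for rB1R; % inhibition versus maximum inhibition.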

B1R receptor of the rat = target: T2, B1R receptor of the rat (Rattus norvegicus, UniProt P97583); assay: Functional study on the bradykinin receptor 1 (B1R), FLIPR Ca2+ assay, rB1R cells; type: cell-based; conditions: agonist Des-Arg9-bradykinin 100 nM, % inhibition compared with the maximum achievable inhibition; for inhibition at 10 µM: CHO-K1, test substance 10 μM, read-out: B1R Antagonism, rat [10 μM] % Inhibition; for B1R Antagonism, rat [10 μM] % Inhibition: test substance 10 μM, rB1R CHO K1 cells
T2 construct: host or cells: CHO K1 cells (Chinese hamster ovary), stably transfected
T2 sequence (P97583 1-337): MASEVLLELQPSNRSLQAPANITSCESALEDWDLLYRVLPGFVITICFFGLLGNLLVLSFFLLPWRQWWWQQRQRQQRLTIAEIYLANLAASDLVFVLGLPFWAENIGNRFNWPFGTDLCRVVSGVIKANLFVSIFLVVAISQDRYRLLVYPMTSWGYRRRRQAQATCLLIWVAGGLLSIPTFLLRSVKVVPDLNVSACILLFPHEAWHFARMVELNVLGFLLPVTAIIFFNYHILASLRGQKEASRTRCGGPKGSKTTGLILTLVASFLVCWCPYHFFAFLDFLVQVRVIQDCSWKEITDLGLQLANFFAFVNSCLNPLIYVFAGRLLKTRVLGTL
Outline: as §1

inhibition at 10 µM (human B1R receptor)	inhibition at 10 µM (B1R receptor of the rat)	B1R Antagonism, human [10 μM] % Inhibition (human B1R receptor)	B1R Antagonism, rat [10 μM] % Inhibition (B1R receptor of the rat)	SMILES
105%	101%			COc1ccc(N2CCN(C(=O)COCC3CCCN3S(=O)(=O)c3c(C)cc(OC)cc3C)CC2)cc1 (centres unmarked) [Example 308, 2-((1-(4-methoxy-2,6-dimethylphenylsulfonyl)pyrrolidin-2-yl)methoxy)-1-(4-(4-methoxyphenyl)piperazin-1-yl)ethanone]
92.6%	96.2%			COc1cc(C)c(S(=O)(=O)N2CCCC2COCC(=O)N2CCCN(c3ncccc3C#N)CC2)c(C)c1 (centres unmarked) [Example 531, 2-(4-(2-((1-(4-methoxy-2,6-dimethylphenylsulfonyl)pyrrolidin-2-yl)methoxy)acetyl)-1,4-diazepan-1-yl)nicotinonitrile]
		58.57%	26.41%	CN(C)c1ccc(C2CCCCCN2C(=O)COCC2CCCCN2S(=O)(=O)c2cccc3ccccc23)cc1 (centres unmarked) [Example 63, 1-[2-(4-dimethylamino-phenyl)-azepan-1-yl]-2-[1-(naphthyl-1-sulfonyl)-piperidin-2-ylmethoxy]-ethanone]
92.3%	85.3%			O=C(COCC1CCCCN1S(=O)(=O)c1cccc2ccccc12)N1CCC(N2CCCC2)CC1 (centres unmarked) [Example 23, 2-((1-(naphthalen-1-ylsulfonyl)piperidin-2-yl)methoxy)-1-(4-(pyrrolidin-1-yl)piperidin-1-yl)ethanone]
39.8%	106%			COc1cc(C)c(S(=O)(=O)N2CCCCC2COCC(=O)Nc2cc(-c3ccccc3)n[nH]2)c(C)c1 (centres unmarked) [Example 545, 2-((1-(4-methoxy-2,6-dimethylphenylsulfonyl)piperidin-2-yl)methoxy)-N-(3-phenyl-1H-pyrazol-5-yl)acetamide]
39.1%	88.5%			O=C(COCC1CCCN1S(=O)(=O)c1c(Cl)cc(Cl)cc1Cl)NCc1ccc(N2CCOCC2)cc1 (centres unmarked) [Example 580, N-(4-morpholinobenzyl)-2-((1-(2,4,6-trichlorophenylsulfonyl)pyrrolidin-2-yl)methoxy)acetamide]
92.6%	92.2%			O=C(COCC1CCCN1S(=O)(=O)c1c(Cl)cc(Cl)cc1Cl)NCCN1CCCCC1 (centres unmarked) [Example 338, N-(2-(piperidin-1-yl)ethyl)-2-((1-(2,4,6-trichlorophenylsulfonyl)pyrrolidin-2-yl)methoxy)acetamide]
105%	88.1%			O=C(COCC1CCCN1S(=O)(=O)c1c(Cl)cccc1Cl)NCC1CCCN(Cc2ccccc2)C1 (centres unmarked) [Example 323, N-((1-benzylpiperidin-3-yl)methyl)-2-((1-(2,6-dichlorophenylsulfonyl)pyrrolidin-2-yl)methoxy)acetamide]
92.2%	100%			COc1cccc(N2CCN(C(=O)COCC3CCCCN3S(=O)(=O)c3c(Cl)cccc3Cl)CC2)c1 (centres unmarked) [Example 317, 2-((1-(2,6-dichlorophenylsulfonyl)piperidin-2-yl)methoxy)-1-(4-(3-methoxyphenyl)piperazin-1-yl)ethanone]
101%	100%			Cc1ccc(N2CCN(C(=O)COCC3CCCCN3S(=O)(=O)c3c(Cl)cccc3Cl)CC2)cc1C (centres unmarked) [Example 403, 2-((1-(2,6-dichlorophenylsulfonyl)piperidin-2-yl)methoxy)-1-(4-(3,4-dimethylphenyl)piperazin-1-yl)ethanone]
106%	108%			COc1cc(C)c(S(=O)(=O)N2CCCCC2COCC(=O)N2CCC(CCN3CCCCC3)CC2)c(C)c1 (centres unmarked) [Example 533, 2-((1-(4-methoxy-2,6-dimethylphenylsulfonyl)piperidin-2-yl)methoxy)-1-(4-(2-(piperidin-1-yl)ethyl)piperidin-1-yl)ethanone]
101%	85.2%			Cc1cc(S(=O)(=O)N2CCCCC2COCC(=O)N2CCN(C3CCN(C)CC3)CC2)c(C)s1 (centres unmarked) [Example 172, 2-((1-(2,5-dimethylthiophen-3-ylsulfonyl)piperidin-2-yl)methoxy)-1-(4-(1-methylpiperidin-4-yl)piperazin-1-yl)ethanone]
102%	85.3%			O=C(COCC1Cc2ccccc2CN1S(=O)(=O)c1ccc(Cl)cc1Cl)N1CCC(N2CCCCC2)CC1 (centres unmarked) [Example 9, 1-(1,4′-bipiperidin-1′-yl)-2-((2-(2,4-dichlorophenylsulfonyl)-1,2,3,4-tetrahydro-isoquinolin-3-yl)methoxy)ethanone]
80%	100%			COc1cc(C)c(S(=O)(=O)N2CCCCC2COCC(=O)NCCN2CCCC2)c(C)c1 (centres unmarked) [Example 343, 2-((1-(4-methoxy-2,6-dimethylphenylsulfonyl)piperidin-2-yl)methoxy)-N-(2-(pyrrolidin-1-yl)ethyl)acetamide]
40.5%	74.4%			O=C(COCC1CCCN1S(=O)(=O)c1c(Cl)cccc1Cl)N1CCCCC1Cc1ccncc1 (centres unmarked) [Example 453, 2-((1-(2,6-dichlorophenylsulfonyl)pyrrolidin-2-yl)methoxy)-1-(2-(pyridin-4-ylmethyl)piperidin-1-yl)ethanone]
		55.38%	38.64%	CN(C)C1CCN(C(=O)COCCC2CCCCN2S(=O)(=O)c2cccc3ccccc23)C1 (centres unmarked) [Example 66, 1-(3-dimethylamino-pyrrolidin-1-yl)-2-[1-(naphthyl-1-sulfonyl)-piperidin-2-ylethoxy]-ethanone]
101%	101%			Cc1cc(C)c(S(=O)(=O)N2CCCCC2COCC(=O)N2CCCCC2Cc2ncccc2C)c(C)c1 (centres unmarked) [Example 229, 2-((1-(mesitylsulfonyl)piperidin-2-yl)methoxy)-1-(2-((3-methylpyridin-2-yl)methyl)piperidin-1-yl)ethanone]
102%	98.8%			CN1CCC(N2CCN(C(=O)COCC3CCCCN3S(=O)(=O)c3csc4ccccc34)CC2)CC1 (centres unmarked) [Example 137, 2-((1-(benzo[b]thiophen-3-ylsulfonyl)piperidin-2-yl)methoxy)-1-(4-(1-methylpiperidin-4-yl)piperazin-1-yl)ethanone]
84.5%	101%			COc1cc(C)c(S(=O)(=O)N2CCCC2COCC(=O)N2CCN(c3ccc(C(F)(F)F)cn3)CC2)c(C)c1 (centres unmarked) [Example 468, 2-((1-(4-methoxy-2,6-dimethylphenylsulfonyl)pyrrolidin-2-yl)methoxy)-1-(4-(5-(trifluoromethyl)pyridin-2-yl)piperazin-1-yl)ethanone]
103%	100%			COc1cc(C)c(S(=O)(=O)N2CCCCC2COCC(=O)N(C)CCC2CCC(N3CCCC3)CC2)c(C)c1 (centres unmarked) [Example 194, 2-((1-(4-methoxy-2,6-dimethylphenylsulfonyl)piperidin-2-yl)methoxy)-N-methyl-N-(2-(4-(pyrrolidin-1-yl)cyclohexyl)ethyl)acetamide]
		100.51%	100.49%	O=C(COCC1CCCCN1S(=O)(=O)c1c(Cl)cc(Cl)cc1Cl)N1CCC(c2cccnc2)C1 (centres unmarked) [Example 389]
102%	99.8%			Cc1ccc(CN2CCN(C(=O)COCC3CCCCN3S(=O)(=O)c3c(Cl)cccc3Cl)CC2)cc1 (centres unmarked) [Example 408, 2-((1-(2,6-dichlorophenylsulfonyl)piperidin-2-yl)methoxy)-1-(4-(4-methylbenzyl)piperazin-1-yl)ethanone]
